Laboratory results: patent publication US10227327B2, “Inhibitors of metallo-beta-lactamase (MBL) comprising a zinc chelating moiety” (Universitetet I Oslo, priority 2013, dated 2019)

What was measured:
VIM-2 = VIM-2 (Escherichia coli, UniProt Q5U7L7); test: IC50 determination against purified MBL, nitrocefin reporter substrate; assay type: biochemical; details: purified enzyme 1 nM, nitrocefin 50 μM, 25° C.
Protocol: (§1) General Protocol for Determination of IC50-Values
(§2) Buffers: A: 50 mM HEPES pH 7.2, 100 μM ZnCl2
(§3) • B: 50 mM HEPES pH 7.2, 100 μM ZnCl2 and 400 μg/ml Bovine Serum Albumin (BSA) Equipment: SpectraMax 96 well reader • 96 well plates • Cuvettes • General plastics: dilution tubes, eppendorfs etc. Method: Inhibitors: a. Dissolved in 100% DMSO at a concentration of 10 mM • b. Dissolve the inhibitor in buffer A to a concentration of 25% DMSO. No more than 2.5% DMSO is tolerable in the assay. 100% DMSO (10 mM); […]; […] • c. Make a 2-fold dilution series of the inhibitor. At least 8 dilutions should be made. See example in table 1 Reporter Substrate (Nitrocefin): • a. Dilute a small amount of nitrocefin in 1 ml of DMSO • b. Add 990 μl buffer A+10 μl of nitrocefin to a cuvette. • c. Measure initial OD at absorbance specific for the substrate • d. Add purified enzyme to the cuvette and let the hydrolysis run to completion (the more concentrated the enzyme the faster the hydrolysis will run) • e. Measure the end OD • f. Calculate the concentration of substrate: [(End OD−Initial OD)×dilution factor]/Δε (Δε Nitrocefin=17400) • g. Dilute nitrocefin to 100 μM in buffer A Enzyme: Dilute purified enzyme in buffer B to a concentration of 10 nM. Assay: a. Set the settings and temperature on the Spectramax/software: • I. Kinetics • II. λ: 482 • III. Time: 20 min • IV. Interval: 2-5 sec. • V. Mix before 1st read: 5 sec. • VI. Temp: 25° C. • b. Add 30 μl buffer A, 10 μl purified enzyme (final concn. 1 nM), and 10 μl inhibitor to assay wells (duplicates for each inhibitor concentration). Also include a negative control. Wells with no added inhibitor, just 40 μl buffer A. See illustration in table 1. • c. Incubate the plate in the reader for 5 min. • d. Add 50 μl nitrocefin (final concn. 50 μM) to assay wells. This should be done quickly—preferably with an electronic multi-channel pipette. • e. Start the readings immediately. Determine: the initial velocity (V0) for each inhibitor concentration and calculate IC50.

[1] = target: GIM-1 in E. coli SNO3 containing pET26b-blaGIM-1 (Pseudomonas aeruginosa, UniProt Q704V1); test: MBL inhibition in whole E. coli cells expressing MBL (nitrocefin hydrolysis); assay type: cell-based; details: whole cell, test substance 250 μM
Chain of GIM-1 in E. coli SNO3 containing pET26b-blaGIM-1 (Q704V1 19-250 limits assumed): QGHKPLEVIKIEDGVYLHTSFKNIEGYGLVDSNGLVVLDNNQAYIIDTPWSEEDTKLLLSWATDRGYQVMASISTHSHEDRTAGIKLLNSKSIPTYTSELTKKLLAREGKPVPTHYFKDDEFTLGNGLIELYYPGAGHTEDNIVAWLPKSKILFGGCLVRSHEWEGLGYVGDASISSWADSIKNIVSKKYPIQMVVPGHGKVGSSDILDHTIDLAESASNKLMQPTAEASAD

[2] = target: VIM-2 in E. coli SNO3 containing pET26b-blaVIM-2 (Escherichia coli, UniProt Q5U7L7); test: as above; assay type: cell-based; details: whole cell, test substance 250 μM
GIM-1 = GIM-1 (Pseudomonas aeruginosa, UniProt Q704V1); test: IC50 determination against purified MBL, nitrocefin reporter substrate; assay type: biochemical; details: purified enzyme 1 nM, nitrocefin 50 μM, 25° C.
Chain of GIM-1 (Q704V1 19-250 limits assumed): as above
Protocol: as §1, §2, §3

NDM-1 = NDM-1 (Klebsiella pneumoniae, UniProt C7C422); test: as above; assay type: biochemical; details: purified enzyme 1 nM, nitrocefin 50 μM, 25° C.
Chain of NDM-1 (C7C422 whole entry, looked up, species assumed): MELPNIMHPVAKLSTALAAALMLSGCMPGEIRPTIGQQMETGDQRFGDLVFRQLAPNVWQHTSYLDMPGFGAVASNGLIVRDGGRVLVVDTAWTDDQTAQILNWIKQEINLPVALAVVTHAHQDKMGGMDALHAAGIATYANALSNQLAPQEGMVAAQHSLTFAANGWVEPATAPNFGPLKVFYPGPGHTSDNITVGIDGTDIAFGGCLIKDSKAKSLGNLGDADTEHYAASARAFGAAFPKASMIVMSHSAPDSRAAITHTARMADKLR
Protocol: as §1, §2, §3

[3] = system: MBL-negative clinical strains; test: Synergy with meropenem in MBL-negative clinical strains; assay type: cell-based
Protocol: (§4) General Protocol for Microbroth Dilution Method for Evaluating Antibacterial Activity of Compounds or Synergistic Effect of Compound-Antibiotic Combination
(§5) • Plate bacterial strain(s) on appropriate media: • Gram-negative bacteria with ESBLs or carbapenemases: green agar plates with 100 mg/L ampicillin • Gram-negative bacteria without β-lactamases: green agar plates • Gram-positive bacteria (Staphylococci and Enterococci): blood agar plates • Incubate o.n. at 37° C. Day 2: Prepare the Bacterial Inoculum: • Prepare a 0.5 McFarland suspension of bacteria in 0.85% NaCl. (Should be used within 15 min of preparation). • Dilute the 0.5 McFarland suspension 1:100 into MH broth. Check the inoculum by diluting the prepared bacterial suspension 1:100 (10 μl bacterial suspension+990 μl 0.85% NaCl). Plate 10 μl of the dilution on MH agar plates (×2). Incubate o.n. at 37° C., count the colonies and calculate the final CFU/ml inoculum in the plate by multiplying the average number of colonies with 10000 and divide by 2. The final inoculum should be between 3-7×10^5 CFU/ml. • Add 50 μl of the prepared bacterial suspension to each well in the microtiter plate except negative growth control. Preparation of Compounds/Antibiotics • Calculate the desired concentration-range and volume of the compounds/antibiotics in the assay. […] Dilute the stock solution in MH broth. […]

[4] = system: MBL-producing P. aeruginosa, K. pneumoniae and E. coli; test: Synergy with meropenem in MBL-producing clinical strains; assay type: cell-based; details: compound 125 μM
Protocol: as §4, §5

[5] = system: K. pneumoniae 50732159 (MBL negative); test: Microbroth dilution, meropenem MIC with/without compound; assay type: cell-based; details: 50732159 K. pneumoniae MBL negative; for Meropenem MIC (mg/L) in presence of compound: compound at 125 μM
Protocol: as §4
(§6) • Plate bacterial strain(s) on appropriate media: • Gram-negative bacteria with ESBLs or carbapenemases: green agar plates with 100 mg/L ampicillin • Gram-negative bacteria without β-lactamases: green agar plates • Gram-positive bacteria (Staphylococci and Enterococci): blood agar plates • Incubate o.n. at 37° C. Day 2: Prepare the Bacterial Inoculum: • Prepare a 0.5 McFarland suspension of bacteria in 0.85% NaCl. (Should be used within 15 min of preparation). • Dilute the 0.5 McFarland suspension 1:100 into MH broth. Check the inoculum by diluting the prepared bacterial suspension 1:100 (10 μl bacterial suspension+990 μl 0.85% NaCl). Plate 10 μl of the dilution on MH agar plates (×2). Incubate o.n. at 37° C., count the colonies and calculate the final CFU/ml inoculum in the plate by multiplying the average number of colonies with 10000 and divide by 2. The final inoculum should be between 3-7×10^5 CFU/ml. • Add 50 μl of the prepared bacterial suspension to each well in the microtiter plate except negative growth control. Preparation of Compounds/Antibiotics • Calculate the desired concentration-range and volume of the compounds/antibiotics in the assay. […] Dilute the stock solution in MH broth. Make subsequent 2-fold dilutions in MH broth of the desired concentrations if a concentration range is to be tested (remember the extra dilution factor in the assay plate). Always include extra volume for pipetting. Take into consideration stock solutions that are made in buffers that have an effect on bacterial growth (e.g. DMSO). Assay: • Determining the MIC of compounds/antibiotics alone: • Add 25 μl of each concentration of compound/antibiotic to row 2-11 (highest concentration in row 2) • Add 25 μl MH broth to row 2-11 • Add 50 μl MH broth to row 12 (positive control) • Add 100 μl MH broth to row 1 • Add 50 μl bacterial suspension to row 2-12. • Determining the MIC of antibiotics+compounds: • Add 25 μl of each concentration of antibiotic to row 2-11 (highest concentration in row 2) • Add 25 μl of compound to row 2-11 • Add 50 μl MH broth to row 12 (positive control) • Add 100 μl MH broth to row 1 • Add 50 μl bacterial suspension to row 2-12. • Incubate the plate for 20 hrs at 37° C. and determine the MIC in the presence and absence of inhibitor.

[6] = system: E. coli 50739467 (MBL negative); test: as above; assay type: cell-based; details: 50739467 E. coli MBL negative; for Meropenem MIC (mg/L) in presence of compound: compound at 125 μM
Protocol: as §4, §6

[7] = system: P. aeruginosa 50808021 (MBL negative); test: as above; assay type: cell-based; details: compound at 125 μM; 50808021 P. aeruginosa MBL negative
Protocol: as §4, §6

[8] = system: K. pneumoniae K66-45 (NDM-1); test: as above; assay type: cell-based; details: absence of inhibitor; K66-45 K. pneumoniae NDM-1
Protocol: as §4, §6

E. coli K71-77 (NDM-1) = test: as above; assay type: cell-based; details: absence of inhibitor; K71-77 E. coli NDM-1
Protocol: as §4, §6

E. coli 50639799 (VIM-1) = test: as above; assay type: cell-based; details: absence of inhibitor; 50639799 E. coli VIM-1
Protocol: as §4, §6

[9] = system: K. pneumoniae A3-81 (VIM-1); test: as above; assay type: cell-based; details: absence of inhibitor; A3-81 K. pneumoniae VIM-1
Protocol: as §4, §6

| SMILES | IC50 (VIM-2) | inhibition at 250 µM [1] | inhibition at 250 µM [2] | IC50 (GIM-1) | IC50 (NDM-1) | other results |
| --- | --- | --- | --- | --- | --- | --- |
| COc1ccc(Cn2cc(CN(Cc3ccccn3)Cc3ccccn3)nn2)cc1 [Example 3, 1-(1-(4-methoxybenzyl)-1H-1,2,3-triazol-4-yl)-N,N-bis(pyridin-2-ylmethyl)methanamine] | 19.8 µM | 15.7% | 74% |  |  |  |
| COc1cc(-n2cc(CN(Cc3ccccn3)Cc3ccccn3)nn2)cc(OC)c1OC [Example 5, 1-(pyridin-2-yl)-N-(pyridin-2-ylmethyl)-N-((1-(3,4,5-trimethoxyphenyl)-1H-1,2,3-triazol-4-yl)methyl)methanamine] | 11.5 µM | 14.4% | 73.8% | 0.79 µM |  |  |
| O=[N+]([O-])c1ccc(Cn2cc(CN(Cc3ccccn3)Cc3ccccn3)nn2)cc1 [Example 6, 1-(1-(4-nitrobenzyl)-1H-1,2,3-triazol-4-yl)-N,N-bis(pyridin-2-ylmethyl)methanamine] | 40.9 µM | 20.6% | 82.1% | 0.71 µM |  |  |
| COc1cc(Cn2cc(CN(Cc3ccccn3)Cc3ccccn3)nn2)cc(OC)c1OC [Example 7, 1-(pyridin-2-yl)-N-(pyridin-2-ylmethyl)-N-((1-(3,4,5-trimethoxybenzyl)-1H-1,2,3-triazol-4-yl)methyl)methanamine] | 18.7 µM | 12.5% | 75.3% | 0.14 µM |  |  |
| COc1ccc(Cn2cc(CN(Cc3ccccn3)Cc3ccccn3)nn2)cc1[N+](=O)[O-] [Example 8, 1-(1-(4-methoxy-3-nitrobenzyl)-1H-1,2,3-triazol-4-yl)-N,N-bis(pyridin-2-ylmethyl)methanamine] | 14.8 µM | 22.2% | 83% | 1.03 µM | 1.06 µM |  |
| COc1ccc(Cn2cc(CN(Cc3ccccn3)Cc3ccccn3)nn2)cc1Br [Example 9] | 19 µM | 14.8% | 84.2% | 3.15 µM | 0.6 µM |  |
| COc1ccc(-n2cc(CN(Cc3ccccn3)Cc3ccccn3)nn2)c(OC)c1 [Example 11, 1-(1-(2,4-dimethoxyphenyl)-1H-1,2,3-triazol-4-yl)-N,N-bis(pyridin-2-ylmethyl)methanamine] | 12.2 µM | 16.5% | 75.1% | 0.86 µM |  |  |
| FC(F)(F)c1ccc(-n2cc(CN(Cc3ccccn3)Cc3ccccn3)nn2)cc1 [Example 12, 1-(pyridin-2-yl)-N-(pyridin-2-ylmethyl)-N-((1-(4-(trifluoromethyl)phenyl)-1H-1,2,3-triazol-4-yl)methyl)methanamine] | 12.9 µM | 15.7% | 64.2% | 1.1 µM |  | synergistic effect with meropenem [3]: No synergistic effect |
| COc1ccc(-n2cc(CN(Cc3ccccn3)Cc3ccccn3)nn2)cc1 [Example 13, 1-(1-(4-methoxyphenyl)-1H-1,2,3-triazol-4-yl)-N,N-bis(pyridin-2-ylmethyl)methanamine] | 24.9 µM | 20.6% | 82% | 1.43 µM | 0.72 µM |  |
| C[C@@H](N)C(=O)N[C@H](C)C(=O)NCCc1ccc(NC(=O)CN(Cc2ccccn2)Cc2ccccn2)cc1.Cl [Example 24, (R)-1-(((R)-1-((4-(2-(bis(pyridin-2-ylmethyl)amino)acetamido)phenethyl)amino)-1-oxopropan-2-yl)amino)-1-oxopropan-2-aminium chloride] | 22.8 µM | 69.2% | 98.2% | 0.4 µM | 0.52 µM | synergistic activity with meropenem [4]: strong synergistic potentiation of meropenem; Meropenem MIC (mg/L) in presence of compound [5]: 32 mg/L; Meropenem MIC (mg/L) in presence of compound [6]: 0.5 mg/L; Meropenem MIC (mg/L) in presence of compound [7]: 128 to 256 mg/L; synergistic effect with meropenem [3]: No synergistic effect |
| C[C@@H](O)[C@H]1C(=O)N2C(C(=O)O)=C(S[C@@H]3CN[C@H](C(=O)N(C)C)C3)[C@H](C)[C@H]12 [MEM, Meropenem] |  |  |  |  |  | Meropenem MIC [8]: 32 to 64 µg/mL; Meropenem MIC ([5]; absence of inhibitor): 32 µg/mL; Meropenem MIC (E. coli K71-77 (NDM-1)): 1 to 4 µg/mL; Meropenem MIC (E. coli 50639799 (VIM-1)): 8 to 16 µg/mL; Meropenem MIC ([6]; absence of inhibitor): 0.5 µg/mL; Meropenem MIC [9]: 64 to 256 µg/mL |
| c1ccc(CN(CCN(Cc2ccccn2)Cc2ccccn2)Cc2ccccn2)nc1 [TPEN, N,N,N′,N′-tetrakis(2-pyridylmethyl) ethylenediamine, reference compound] | 0.3 µM |  |  | 0.61 µM |  | synergistic activity with meropenem [4]: Synergistic activity; Meropenem MIC (mg/L) in presence of compound [5]: ≤0.064 mg/L; Meropenem MIC (mg/L) in presence of compound [6]: 1 mg/L; Meropenem MIC (mg/L) in presence of compound [7]: 64 mg/L |
